We go through 2 compounds from paper PMC11879040, “Advancing systemic toxicity risk assessment: Evaluation of a NAM-based toolbox approach” (Toxicological Sciences, 2024).

Series [1] concerns the target T1, Constitutive androstane receptor CAR, NR1I3 (h) (Homo sapiens, UniProt Q14994).
T1 sequence (Q14994 1-352): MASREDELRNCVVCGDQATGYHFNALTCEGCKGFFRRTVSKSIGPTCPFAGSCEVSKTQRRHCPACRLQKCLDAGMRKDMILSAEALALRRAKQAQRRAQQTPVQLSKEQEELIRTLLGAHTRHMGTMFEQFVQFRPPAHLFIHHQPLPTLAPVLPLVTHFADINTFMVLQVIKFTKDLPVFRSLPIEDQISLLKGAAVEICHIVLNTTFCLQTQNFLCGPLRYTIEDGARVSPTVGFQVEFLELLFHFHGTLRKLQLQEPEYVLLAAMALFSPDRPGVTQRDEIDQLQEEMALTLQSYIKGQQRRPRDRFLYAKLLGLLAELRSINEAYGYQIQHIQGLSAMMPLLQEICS
The format is biochemical.

The test system of another series is Tubulin (r). Description: IPP Tubulin binding. On the set-up: species or system rat.
The target of series [2] is Potassium voltage-gated channel subfamily H member 2 hERG, KCNH2 (h) (Homo sapiens, UniProt Q12809). The settings on record: human, 100 µM.
In series [3] the target is T2, Pregnane X receptor PXR, NR1I2 (h) (Homo sapiens, UniProt O75469).
T2 sequence (O75469 1-434): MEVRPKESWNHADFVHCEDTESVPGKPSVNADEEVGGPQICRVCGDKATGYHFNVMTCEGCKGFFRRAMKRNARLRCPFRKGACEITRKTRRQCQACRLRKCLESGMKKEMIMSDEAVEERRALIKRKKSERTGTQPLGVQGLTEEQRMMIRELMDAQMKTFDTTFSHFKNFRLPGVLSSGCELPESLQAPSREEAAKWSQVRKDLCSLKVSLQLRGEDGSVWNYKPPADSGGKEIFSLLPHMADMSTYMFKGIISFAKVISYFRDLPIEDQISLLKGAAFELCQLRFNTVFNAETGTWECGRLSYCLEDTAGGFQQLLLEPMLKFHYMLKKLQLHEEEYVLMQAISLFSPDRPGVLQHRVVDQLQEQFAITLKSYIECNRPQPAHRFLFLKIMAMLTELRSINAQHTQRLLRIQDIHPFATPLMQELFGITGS

The next series deals with HepaRG cells. Description: High-throughput transcriptomics (HTTr, TempO-Seq), HepaRG, 24 h. The settings on record: HepaRG; for pod_httr_bifrost PoD: HTTr BIFROST PoD; for podl_path_minbmd PoD: HTTr minimum pathway BMD(L). The class given is cell-based, human. The procedure: (§1) HepG2, HepaRG, and MCF7 cells were treated with each compound for 24 h across a dose range of 7 concentrations and lysed using TempO-Seq lysis buffer (BioSpyder Technologies, proprietary kit, see [Middleton et al. 2022] for method details). Sequencing was performed using TempO-Seq (BioClavis) version 2 of the human whole transcriptome panel and analyzed as described previously in Middleton et al.

Series [4] addresses T3, Estrogen receptor, ER1 (h) (Homo sapiens, UniProt P03372).
T3 construct: purchased Eurofins Cerep (SafetyScreen44-based IPP panel)
T3 sequence (P03372 1-595): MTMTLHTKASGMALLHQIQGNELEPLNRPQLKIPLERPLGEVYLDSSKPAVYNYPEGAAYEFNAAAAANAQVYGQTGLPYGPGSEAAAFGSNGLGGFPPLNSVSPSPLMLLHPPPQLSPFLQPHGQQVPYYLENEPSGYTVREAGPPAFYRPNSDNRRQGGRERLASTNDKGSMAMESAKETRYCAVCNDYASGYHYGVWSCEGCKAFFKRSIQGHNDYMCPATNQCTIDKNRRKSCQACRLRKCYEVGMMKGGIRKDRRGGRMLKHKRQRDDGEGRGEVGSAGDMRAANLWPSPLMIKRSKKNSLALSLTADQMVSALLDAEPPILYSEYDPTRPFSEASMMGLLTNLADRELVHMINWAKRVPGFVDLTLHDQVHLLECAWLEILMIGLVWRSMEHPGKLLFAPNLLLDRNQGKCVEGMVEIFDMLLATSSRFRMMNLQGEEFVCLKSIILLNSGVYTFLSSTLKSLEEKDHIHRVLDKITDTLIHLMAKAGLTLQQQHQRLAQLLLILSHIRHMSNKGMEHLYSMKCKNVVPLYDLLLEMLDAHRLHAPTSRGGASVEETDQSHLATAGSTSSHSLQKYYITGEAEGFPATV
In words: IPP ER1 coactivator recruitment (antagonist). The class given is biochemical. The settings on record: 100 uM, estriol, * denotes assay interference (2-Amino-6-chloro-4-nitrophenol, HC Red 3).

The next series deals with rat. The settings on record: ref [2], cited from earlier work.
Series [5] deals with HepG2 cells. In words: Cell stress panel (CSP), 24 h, 8 concentrations, BIFROST global PoD. The format is cell-based. The settings on record: HepG2; cell stress panel PoD. The procedure:
Compounds were tested using the previously developed cell stress panel ([Hatherell et al. 2020]) and the expanded biomarker panel outlined in Middleton et al. HepG2 cells were treated with all compounds for 24 h across 8 concentrations prior to biomarker analysis. The same plate layout and number of replicates (3 biological and 2 technical) were used as previously for each assay within the panel.

The test system of series [6] is Gamma-aminobutyric acid receptor subunit alpha-1 BZD site, GABRA1A (r). The format is binding, rat.
The test system of series [7] is Sodium channel protein type 5 subunit alpha (site 2), SCN5A (r). The class given is binding, rat.
Series [8] concerns HepG2 cells. Description: High-throughput transcriptomics (HTTr, TempO-Seq), HepG2, 24 h. The format is cell-based, human. The settings on record: HepG2; for pod_httr_bifrost PoD: HTTr BIFROST PoD; for podl_path_minbmd PoD: HTTr minimum pathway BMD(L). The procedure: as §1
For the next series, the system named is MCF7 cells. Description: High-throughput transcriptomics (HTTr, TempO-Seq), MCF7, 24 h. The format is cell-based, human. The settings on record: MCF-7; for pod_httr_bifrost PoD: HTTr BIFROST PoD; for podl_path_minbmd PoD: HTTr minimum pathway BMD(L). The procedure:
as §1

Series [9] deals with T4, Adenosine receptor A2a, ADORA2A (h) (Homo sapiens, UniProt P29274).
T4 construct: purchased Eurofins Cerep (SafetyScreen44-based IPP panel)
Description: IPP ADORA2A binding (agonist radioligand). The settings on record: control NECA.

Series [10] deals with Glutamate receptor ionotropic NMDA 1 non-selective, GRIN1 (r).
Series [11] concerns the target T3, Estrogen receptor, ER1 (h). Description: IPP ER1 coactivator recruitment (agonist). The class given is biochemical. The settings on record: 100 uM, estriol, * denotes assay interference (2-Amino-6-chloro-4-nitrophenol, HC Red 3).
Series [12] relates to Potassium Voltage-Gated Channel Kv non-selective, KCNQ1 (r). In words: IPP KCNQ1 binding (antagonist radioligand). On the set-up: species or system rat. The settings on record: control α-dendrotoxin.
Series [13] relates to 63 targets with known safety liabilities. Description: In vitro pharmacological profiling (IPP) panel, screening at 10 or 100 µM and dose response, minimum IC50/AC50. The format is biochemical. The settings on record: lowest AC50 across IPP panel (systemic targets); cell_type -; read-out: ipp_lowest_ac50_systemic PoD.
For series [14] the following is noted: PBK level L2; per chemical see Peff Reference; ref [3],[4],[11]; cited from earlier work.
Series [15] concerns Thyroid hormone receptor alpha, THRA (h). In words: IPP THRA coactivator recruitment (agonist). The format is biochemical, human. The settings on record: agonist, T3.
The conditions of series [16]: human.
A further series relates to mouse. The settings on record: mouse, in vivo; cited from earlier work.
Series [17] has as its target Voltage-dependent L-type Ca2+ channel (dihydropyridine site), CACNA1C (r) (Rattus norvegicus, UniProt P22002). The class given is binding.
For series [18] the following is noted: 12 healthy female, cited from earlier work.
Setting [19] is: Oral 50 mg (IR: Capsule), fasted, calibration, ref Huttner et al. 2018.
The mark [20] stands for this setting: human, Oral 100 mg, Fasted, validation, ref Huttner et al., Journal of Antimicrobial Chemotherapy (2018) 74(6): 1656-1661.

Like-named read-outs stand apart in the source and are kept apart here.

T4 sequence (P29274 whole entry): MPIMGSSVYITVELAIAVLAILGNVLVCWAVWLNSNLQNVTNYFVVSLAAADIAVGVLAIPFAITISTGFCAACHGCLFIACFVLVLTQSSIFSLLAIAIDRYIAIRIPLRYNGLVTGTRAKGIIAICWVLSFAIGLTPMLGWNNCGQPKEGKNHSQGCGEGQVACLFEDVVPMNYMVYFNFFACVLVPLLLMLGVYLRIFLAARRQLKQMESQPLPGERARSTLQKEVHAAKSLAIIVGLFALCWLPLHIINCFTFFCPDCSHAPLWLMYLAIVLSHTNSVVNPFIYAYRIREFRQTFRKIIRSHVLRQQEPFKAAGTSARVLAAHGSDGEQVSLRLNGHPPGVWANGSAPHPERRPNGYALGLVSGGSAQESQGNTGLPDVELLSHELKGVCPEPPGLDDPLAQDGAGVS
Potassium voltage-gated channel subfamily H member 2 hERG, KCNH2 (h), sequence (Q12809 whole entry): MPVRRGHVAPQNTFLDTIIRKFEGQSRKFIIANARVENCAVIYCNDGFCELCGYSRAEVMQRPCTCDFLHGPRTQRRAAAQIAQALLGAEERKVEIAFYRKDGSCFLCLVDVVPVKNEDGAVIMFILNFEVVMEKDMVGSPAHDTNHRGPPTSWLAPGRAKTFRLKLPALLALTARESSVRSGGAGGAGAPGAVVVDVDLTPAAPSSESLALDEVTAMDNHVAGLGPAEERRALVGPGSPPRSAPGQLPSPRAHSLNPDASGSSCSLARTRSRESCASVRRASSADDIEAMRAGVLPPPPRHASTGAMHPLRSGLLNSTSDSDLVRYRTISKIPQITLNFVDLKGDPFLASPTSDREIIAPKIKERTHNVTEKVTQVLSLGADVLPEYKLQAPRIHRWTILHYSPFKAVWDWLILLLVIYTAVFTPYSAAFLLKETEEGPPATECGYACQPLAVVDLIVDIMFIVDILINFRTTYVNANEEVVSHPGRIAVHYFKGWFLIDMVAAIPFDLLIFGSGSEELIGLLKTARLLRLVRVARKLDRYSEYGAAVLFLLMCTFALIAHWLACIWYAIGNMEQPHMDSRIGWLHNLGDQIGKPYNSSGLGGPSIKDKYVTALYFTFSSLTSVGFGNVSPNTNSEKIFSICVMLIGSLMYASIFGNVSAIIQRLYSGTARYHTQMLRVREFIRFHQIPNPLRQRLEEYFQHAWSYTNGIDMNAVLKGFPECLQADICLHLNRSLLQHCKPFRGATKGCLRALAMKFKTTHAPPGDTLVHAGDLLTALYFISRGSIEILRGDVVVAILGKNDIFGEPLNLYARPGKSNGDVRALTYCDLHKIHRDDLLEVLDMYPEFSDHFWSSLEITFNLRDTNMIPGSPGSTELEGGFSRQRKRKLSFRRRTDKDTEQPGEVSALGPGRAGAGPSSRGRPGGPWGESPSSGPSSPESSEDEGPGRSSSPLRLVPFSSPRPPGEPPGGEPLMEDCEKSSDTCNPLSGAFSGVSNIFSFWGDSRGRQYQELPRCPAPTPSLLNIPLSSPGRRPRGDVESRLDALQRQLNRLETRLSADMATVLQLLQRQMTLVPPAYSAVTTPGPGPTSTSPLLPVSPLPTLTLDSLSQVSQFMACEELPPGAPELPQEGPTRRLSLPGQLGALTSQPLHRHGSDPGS
Voltage-dependent L-type Ca2+ channel (dihydropyridine site), CACNA1C (r), sequence (P22002 whole entry): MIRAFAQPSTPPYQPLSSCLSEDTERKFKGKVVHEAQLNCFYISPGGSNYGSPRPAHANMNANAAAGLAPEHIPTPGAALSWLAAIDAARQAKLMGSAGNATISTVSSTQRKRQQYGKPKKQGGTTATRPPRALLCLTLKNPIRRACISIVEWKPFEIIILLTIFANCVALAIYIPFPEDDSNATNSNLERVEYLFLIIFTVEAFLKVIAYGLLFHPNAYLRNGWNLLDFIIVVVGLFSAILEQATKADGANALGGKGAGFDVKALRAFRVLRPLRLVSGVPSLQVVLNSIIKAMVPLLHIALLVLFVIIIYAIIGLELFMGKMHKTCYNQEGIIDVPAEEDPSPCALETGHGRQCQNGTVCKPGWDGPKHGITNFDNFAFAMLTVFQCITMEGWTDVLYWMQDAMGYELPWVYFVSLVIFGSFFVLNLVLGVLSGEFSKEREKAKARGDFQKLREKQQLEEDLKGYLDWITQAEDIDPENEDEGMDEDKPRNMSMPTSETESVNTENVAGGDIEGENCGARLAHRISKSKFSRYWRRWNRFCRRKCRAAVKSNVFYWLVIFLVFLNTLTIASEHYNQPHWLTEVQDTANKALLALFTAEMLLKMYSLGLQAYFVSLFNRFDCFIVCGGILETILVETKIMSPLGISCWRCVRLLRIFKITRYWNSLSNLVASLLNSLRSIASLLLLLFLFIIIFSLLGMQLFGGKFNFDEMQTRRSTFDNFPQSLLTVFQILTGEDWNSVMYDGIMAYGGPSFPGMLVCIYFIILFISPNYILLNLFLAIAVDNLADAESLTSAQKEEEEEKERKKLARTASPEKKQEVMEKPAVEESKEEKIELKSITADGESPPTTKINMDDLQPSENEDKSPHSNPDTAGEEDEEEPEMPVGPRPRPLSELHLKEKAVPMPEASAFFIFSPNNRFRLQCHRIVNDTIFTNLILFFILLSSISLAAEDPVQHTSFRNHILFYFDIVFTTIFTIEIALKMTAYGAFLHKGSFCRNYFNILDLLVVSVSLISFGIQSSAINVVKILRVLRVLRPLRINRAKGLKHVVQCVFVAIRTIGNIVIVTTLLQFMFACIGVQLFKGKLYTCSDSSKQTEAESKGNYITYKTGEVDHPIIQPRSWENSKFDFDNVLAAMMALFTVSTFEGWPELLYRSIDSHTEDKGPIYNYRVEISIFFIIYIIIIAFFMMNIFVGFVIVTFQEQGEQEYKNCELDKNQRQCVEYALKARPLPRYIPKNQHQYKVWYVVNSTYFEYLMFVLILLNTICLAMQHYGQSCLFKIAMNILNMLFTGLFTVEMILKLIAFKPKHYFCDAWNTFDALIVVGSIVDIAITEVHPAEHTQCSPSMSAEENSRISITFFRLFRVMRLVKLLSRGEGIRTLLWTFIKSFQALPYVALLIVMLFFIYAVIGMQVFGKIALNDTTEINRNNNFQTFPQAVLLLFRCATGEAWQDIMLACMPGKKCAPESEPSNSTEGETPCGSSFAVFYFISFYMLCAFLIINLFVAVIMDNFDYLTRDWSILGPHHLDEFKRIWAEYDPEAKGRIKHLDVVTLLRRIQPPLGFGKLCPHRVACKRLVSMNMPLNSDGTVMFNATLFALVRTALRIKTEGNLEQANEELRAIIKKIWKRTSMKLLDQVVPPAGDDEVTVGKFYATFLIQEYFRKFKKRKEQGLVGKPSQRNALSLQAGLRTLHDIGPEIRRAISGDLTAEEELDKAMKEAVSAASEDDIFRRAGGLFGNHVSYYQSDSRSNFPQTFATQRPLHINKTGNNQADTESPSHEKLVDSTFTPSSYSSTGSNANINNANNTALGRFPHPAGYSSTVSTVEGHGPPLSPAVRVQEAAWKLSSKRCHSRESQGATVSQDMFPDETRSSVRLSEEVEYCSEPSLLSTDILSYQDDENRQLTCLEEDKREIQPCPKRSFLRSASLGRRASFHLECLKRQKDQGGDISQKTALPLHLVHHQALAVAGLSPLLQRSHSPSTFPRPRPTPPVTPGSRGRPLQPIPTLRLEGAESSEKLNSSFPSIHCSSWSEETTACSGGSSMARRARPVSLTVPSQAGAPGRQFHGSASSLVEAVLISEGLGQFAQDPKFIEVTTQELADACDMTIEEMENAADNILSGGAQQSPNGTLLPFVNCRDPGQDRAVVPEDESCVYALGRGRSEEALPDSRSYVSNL

With `Nc1cc([N+](=O)[O-])cc(Cl)c1O` [2-Amino-6-chloro-4-nitrophenol], the “IPP Dose Response PoD: CAR antagonist effect” value in [1] was “[40.9,86.1]”. The “IPP screening %, Specific binding” value in the series on Tubulin (r) (100 uM, ligand/control Colchicine) stood at 5.0%; in [2] it was 10.7%. Further, the “IPP Dose Response PoD: PXR antagonist” value in series [3] is “[37.1,80.3]”. The “pod_httr_bifrost PoD” value with HepaRG cells is 1.518 µM; in the series with HepG2 cells [8], 0.8029 µM; in the series with MCF7 cells it was 0.4471 µM. The “podl_path_minbmd PoD” value in the series on HepaRG cells came to 35.7772 µM; with HepG2 cells [8], 158.096 µM; in the series on MCF7 cells, 9.316 µM. Further, the “IPP screening %, Coactivator recruitment” value in series [4] was -9.0* %; in series [11], 6.0* %; in [15] (100 uM, * denotes assay interference (2-Amino-6-chloro-4-nitrophenol, HC Red 3)), 41.0* %. Also, the NOAEL with rat (90-day rat study, increased liver weights) is recorded as 10 mg/kg bw/day. In the series with rat (reproductive and developmental toxicity rat study), the “dose up to which no maternal or fetal effects were observed” value is given as 90 mg/kg bw/day. Besides, the “pod_cell_stress PoD” value in the series on HepG2 cells [5] turned out to be 0.2197 µM. The Specific binding in [6] (IPP screening at 100 uM, control diazepam) is on record as 14.3%; in [7] (IPP screening at 100 uM, control veratridine), 31.5%; in series [9] (IPP screening at 100 uM), 3.6%; in series [10] (IPP screening at 100 uM, control CGS 19755), 21.2%; in series [12] (IPP screening at 100 uM), 13.7%. Besides, the AC50 in series [13] amounted to 1.53 µM. In addition, the Peff in [14] was 7.96 cm/s x E-04. In series [16], this compound had a risk of 0.
On to `O=C1CN(N=Cc2ccc([N+](=O)[O-])o2)C(=O)N1` [Nitrofurantoin, 1-{[(5-Nitrofuran-2-yl)methylidene]amino}imidazolidine-2,4-dione], for which the “PoD (NOAEL)” value in the series on mouse is 60 mg/kg bw/day. In addition, in the series on Tubulin (r), the “IPP screening %, Specific binding” value is given as 7.0%. The figures for the “pod_httr_bifrost PoD” value in the series on HepaRG cells, with HepG2 cells [8] and with MCF7 cells were 0.1863 µM, 0.5233 µM and 0.3553 µM, respectively. For the same compound, the results for the “podl_path_minbmd PoD” value in the series on HepaRG cells, with HepG2 cells [8] and with MCF7 cells were 2.332 µM, 2.98 µM and 7.519 µM, respectively. Also, the “pod_cell_stress PoD” value with HepG2 cells [5] amounted to 0.5175 µM. In addition, the Specific binding in series [17] is on record as -6.9%; in series [6], 7.2%; in series [7] it was 4.4%; in [9] (IPP screening at 10 uM), 37.8%; in [10], -2.8%; in [12] (IPP screening at 10 uM) it was -14.6%. Further, the “Reported AUC0-t” value in [18] (setting [19]) is 3040 to 6400 ng·h/mL; in series [18] (setting [20]), 940 to 10970 ng·h/mL. The Reported cmax in [18] (setting [19]) was 0.21 to 0.45 mg/L; in [18] (setting [20]), 0.22 to 1.26 mg/L. The Reported tmax in series [18] (setting [19]) and in series [18] (setting [20]) was 30 to 300 min throughout. The “IPP screening %, Coactivator recruitment” value in [15] (10 uM) is listed as 0.0%. Moreover, the risk in series [16] came out at 1.
